{
  "source": "patent US11339171B2",
  "about": "“MDM2 inhibitors” (Gan & Lee Pharmaceuticals, priority 2017, dated 2022)",
  "target": "T1, MDM2 (Homo sapiens, UniProt Q00987)",
  "T1 construct": "made in house",
  "T1 sequence (Q00987 whole entry)": "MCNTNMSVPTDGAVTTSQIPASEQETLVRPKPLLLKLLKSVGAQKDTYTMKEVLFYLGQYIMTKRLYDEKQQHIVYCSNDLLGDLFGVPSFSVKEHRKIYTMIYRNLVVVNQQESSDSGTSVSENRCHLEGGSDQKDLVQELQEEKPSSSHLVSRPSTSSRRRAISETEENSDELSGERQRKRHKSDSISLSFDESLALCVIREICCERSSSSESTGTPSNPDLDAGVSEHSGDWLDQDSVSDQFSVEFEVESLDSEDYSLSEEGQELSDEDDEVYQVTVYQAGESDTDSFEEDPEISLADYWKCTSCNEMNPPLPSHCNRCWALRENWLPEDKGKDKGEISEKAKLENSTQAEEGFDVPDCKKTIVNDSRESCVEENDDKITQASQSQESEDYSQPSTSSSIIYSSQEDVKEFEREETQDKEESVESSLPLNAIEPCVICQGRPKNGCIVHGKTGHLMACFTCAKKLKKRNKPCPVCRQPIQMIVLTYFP",
  "assay": "Inhibition test of MDM2-P53 (GST-MDM2, Biotin-P53, Anti-GST-Tb, SA-XL665)",
  "assay_type": "binding",
  "procedure,_shortened": "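Binding was measured by TR-FRET with GST-MDM2 at 4 nM final in PBS with 0.1% BSA, 5 mM DTT and 1 mM AEBSF. Compounds were tested as twelve-point 5-fold dilutions and incubated with the detection mix for 90 min at 25 °C with shaking before plate-reader reading and curve fitting.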",
  "data": [
    {"compound": "CCOc1ccc(-c2nc3c(n2C(C)C)[C@]2(C(=O)Nc4cc(Cl)ccc42)N(c2cc(Cl)ccc2C)C3=O)c(OC)n1", "note": "[Example R-146, (R)-6-chloro-5′-(5-chloro-2-methylphenyl)-2′-(6-ethoxy-2-methoxypyridin-3-yl)-3′-isopropyl-3′H-spiro[dihydroindole-3,4′-pyrrolo[3,4-d]imidazole]-2,6′(5′H)-dione]", "values": [
      {"measurement": "IC50", "result": 6710, "unit": "nM"}
    ]},
    {"compound": "COc1cc(OCCO)ccc1-c1nc2c(n1C(C)C)[C@]1(C(=O)Nc3cc(Cl)ccc31)N(c1cc(Cl)ccc1C)C2=O", "note": "[Example R-148, (R)-6-chloro-5′-(5-chloro-2-methylphenyl)-2′-(4-(2-hydroxyethoxy)-2-methoxyphenyl)-3′-isopropyl-3′H-spiro[dihydroindole-3,4′-pyrrolo[3,4-d]imidazole]-2,6′(5′H)-dione]", "values": [
      {"measurement": "IC50", "result": 201, "unit": "nM"}
    ]},
    {"compound": "COc1nc(C(C)C)ccc1-c1nc2c(n1C(C)C)[C@]1(C(=O)Nc3cc(Cl)ccc31)N(c1cc(Cl)ccc1C)C2=O", "note": "[Example R-149, (R)-6-chloro-5′-(5-chloro-2-methylphenyl)-3′-isopropyl-2′-(6-isopropyl-2-methoxypyridin-3-yl)-3′H-spiro[dihydroindole-3,4′-pyrrolo[3,4-d]imidazole]-2,6′(5′H)-dione]", "values": [
      {"measurement": "IC50", "result": 2280, "unit": "nM"}
    ]},
    {"compound": "COc1ncc(-c2nc3c(n2C(C)C)[C@]2(C(=O)Nc4cc(Cl)ccc42)N(c2cc(Cl)ccc2C#N)C3=O)c(OC)n1", "note": "[Example R-151, (R)-4-chloro-2-(6-chloro-2′-(2,4-dimethoxypyrimidin-5-yl)-3′-isopropyl-2,6′-dioxo-3′,6′-dihydro-5′H-spiro[dihydroindole-3,4′-pyrrolo[3,4-d]imidazole]-5′-yl)benzonitrile]", "values": [
      {"measurement": "IC50", "result": 5370, "unit": "nM"}
    ]},
    {"compound": "COc1cc(C(F)(F)F)ncc1-c1nc2c(n1C(C)C)[C@]1(C(=O)Nc3cc(Cl)ccc31)N(c1cc(Cl)cnc1C)C2=O", "note": "[Example R-152, (R)-6-chloro-5′-(5-chloro-2-methylpyridin-3-yl)-3′-isopropyl-2′-(4-methoxy-6-(trifluoromethyl)pyridine-3-yl)-3′H-spiro[dihydroindole-3,4′-pyrrolo[3,4-d]imidazole]-2,6′(5′H)-dione]", "values": [
      {"measurement": "IC50", "result": 134, "unit": "nM"}
    ]},
    {"compound": "COc1cc(OCC(F)F)ncc1-c1nc2c(n1C(C)C)[C@]1(C(=O)Nc3cc(Cl)ccc31)N(c1cc(Cl)ccc1C)C2=O", "note": "[Example R-153, (R)-6-chloro-5′-(5-chloro-2-methylphenyl)-2′-(6-(2,2-difluoroethoxy)-4-methoxypyridin-3-yl)-3′-isopropyl-3′H-spiro[dihydroindole-3,4′-pyrrolo[3,4-d]imidazole]-2,6′(5′H)-dione]", "values": [
      {"measurement": "IC50", "result": 31.1, "unit": "nM"}
    ]},
    {"compound": "COc1cc(C)ncc1-c1nc2c(n1C(C)C)[C@]1(C(=O)Nc3cc(Cl)ccc31)N(c1cc(Cl)ccc1C)C2=O", "note": "[Example R-154, (R)-6-chloro-5′-(5-chloro-2-methylphenyl)-3′-isopropyl-2′-(4-methoxy-6-methylpyridin-3-yl)-3′H-spiro[dihydroindole-3,4′-pyrrolo[3,4-d]imidazole]-2,6′(5′H)-dione]", "values": [
      {"measurement": "IC50", "result": 31.1, "unit": "nM"}
    ]},
    {"compound": "COc1ncc(-c2nc3c(n2C(C)C)[C@]2(C(=O)Nc4cc(Cl)ccc42)N(c2ccc(C#N)c(Cl)c2)C3=O)c(OC)n1", "note": "[Example R-158, (R)-2-chloro-4-(6-chloro-2′-(2,4-dimethoxypyrimidin-5-yl)-3′-isopropyl-2,6′-dioxo-3′,6′-dihydro-5′H-spiro[dihydroindole-3,4′-pyrrolo[3,4-d]imidazole]-5′-yl)benzonitrile]", "values": [
      {"measurement": "IC50", "result": 2200, "unit": "nM"}
    ]},
    {"compound": "COc1ncc(-c2nc3c(n2C(C)C)[C@]2(C(=O)Nc4cc(Cl)ccc42)N(c2ccc(OC(F)(F)F)c(Cl)c2)C3=O)c(OC)n1", "note": "[Example R-161, (R)-6-chloro-5′-(3-chloro-4-(trifluoromethoxy)phenyl)-2′-(2,4-dimethoxypyrimidin-5-yl)-3′-isopropyl-3′H-spiro[dihydroindole-3,4′-pyrrolo[3,4-d]imidazole]-2,6′(5′H)-dione]", "values": [
      {"measurement": "IC50", "result": 126, "unit": "nM"}
    ]},
    {"compound": "COc1cc(OCCF)ncc1-c1nc2c(n1C(C)C)[C@]1(C(=O)Nc3cc(Cl)ccc31)N(c1cc(Cl)ccc1C)C2=O", "note": "[Example R-163, (R)-6-chloro-5′-(5-chloro-2-methylphenyl)-2′-(6-(2-fluoroethoxy)-4-methoxypyridin-3-yl)-3′-isopropyl-3′H-spiro[dihydroindole-3,4′-pyrrolo[3,4-d]imidazole]-2,6′(5′H)-dione]", "values": [
      {"measurement": "IC50", "result": 166, "unit": "nM"}
    ]},
    {"compound": "COc1cc(C(C)C)ncc1-c1nc2c(n1C(C)C)[C@]1(C(=O)Nc3cc(Cl)ccc31)N(c1cc(Cl)ccc1C)C2=O", "note": "[Example R-164, (R)-6-chloro-5′-(5-chloro-2-methylphenyl)-3′-isopropyl-2′-(6-isopropyl-4-methoxypyridin-3-yl)-3′H-spiro[dihydroindole-3,4′-pyrrolo[3,4-d]imidazole]-2,6′(5′H)-dione]", "values": [
      {"measurement": "IC50", "result": 592, "unit": "nM"}
    ]},
    {"compound": "COc1cc(C(C)C)ncc1-c1nc2c(n1C(C)C)[C@]1(C(=O)Nc3cc(Cl)ccc31)N(c1cc(Cl)cnc1C)C2=O", "note": "[Example R-166, (R)-6-chloro-5′-(5-chloro-2-methylpyridin-3-yl)-3′-isopropyl-2′-(6-isopropyl-4-methoxypyridin-3-yl)-3′H-spiro[dihydroindole-3,4′-pyrrolo[3,4-d]imidazole]-2,6′(5′H)-dione]", "values": [
      {"measurement": "IC50", "result": 957, "unit": "nM"}
    ]},
    {"compound": "COc1nc(OCCF)ncc1-c1nc2c(n1C(C)C)[C@]1(C(=O)Nc3cc(Cl)ccc31)N(c1cc(Cl)cnc1C)C2=O", "note": "[Example R-170, (R)-6-chloro-5′-(5-chloro-2-methylpyridin-3-yl)-2′-(2-(2-fluoroethoxy)-4-methoxypyrimidin-5-yl)-3′-isopropyl-3′H-spiro[dihydroindole-3,4′-pyrrolo[3,4-d]imidazole]-2,6′(5′H)-dione]", "values": [
      {"measurement": "IC50", "result": 235, "unit": "nM"}
    ]},
    {"compound": "COc1nc(OCCF)ncc1-c1nc2c(n1C(C)C)[C@]1(C(=O)Nc3cc(Cl)ccc31)N(c1cccc(Cl)c1)C2=O", "note": "[Example R-171, (R)-6-chloro-5′-(3-chlorophenyl)-2′-(2-(2-fluoroethoxy)-4-methoxypyrimidin-5-yl)-3′-isopropyl-3′H-spiro[dihydroindole-3,4′-pyrrolo[3,4-d]imidazole]-2,6′(5′H)-dione]", "values": [
      {"measurement": "IC50", "result": 8830, "unit": "nM"}
    ]},
    {"compound": "COc1nc(C(C)C)ncc1-c1nc2c(n1C(C)C)[C@]1(C(=O)Nc3cc(Cl)ccc31)N(c1cc(Cl)ccc1C)C2=O", "note": "[Example R-172, (R)-6-chloro-5′-(5-chloro-2-methylphenyl)-3′-isopropyl-2′-(2-isopropyl-4-methoxypyrimidin-5-yl)-3′H-spiro[dihydroindole-3,4′-pyrrolo[3,4-d]imidazole]-2,6′(5′H)-dione]", "values": [
      {"measurement": "IC50", "result": 408, "unit": "nM"}
    ]},
    {"compound": "COc1cc(OCCF)ncc1-c1nc2c(n1C(C)C)[C@]1(C(=O)Nc3cc(Cl)ccc31)N(c1cc(Cl)cnc1C)C2=O", "note": "[Example R-173, (R)-6-chloro-5′-(5-chloro-2-methylpyridin-3-yl)-2′-(6-(2-fluoroethoxy)-4-methoxypyridin-3-yl)-3′-isopropyl-3′H-spiro[dihydroindole-3,4′-pyrrolo[3,4-d]imidazole]-2,6′(5′H)-dione]", "values": [
      {"measurement": "IC50", "result": 528, "unit": "nM"}
    ]},
    {"compound": "COc1nc(C2CC2)ncc1-c1nc2c(n1C(C)C)[C@]1(C(=O)Nc3cc(Cl)ccc31)N(c1cc(F)cc(Cl)c1)C2=O", "note": "[Example R-174, (R)-6-chloro-5′-(3-chloro-5-fluorophenyl)-2′-(2-cyclopropyl-4-methoxypyrimidin-5-yl)-3′-isopropyl-3′H-spiro[dihydroindole-3,4′-pyrrolo[3,4-d]imidazole]-2,6′(5′H)-dione]", "values": [
      {"measurement": "IC50", "result": 515, "unit": "nM"}
    ]},
    {"compound": "COc1cc(OC)c(-c2nc3c(n2C(C)C)[C@]2(C(=O)Nc4cc(Cl)ccc42)N(c2cc(F)cc(Cl)c2)C3=O)cn1", "note": "[Example R-175, (R)-6-chloro-5′-(3-chloro-5-fluorophenyl)-2′-(4,6-dimethoxypyridin-3-yl)-3′-isopropyl-3′H-spiro[dihydroindole-3,4′-pyrrolo[3,4-d]imidazole]-2,6′(5′H)-dione]", "values": [
      {"measurement": "IC50", "result": 522, "unit": "nM"}
    ]},
    {"compound": "COc1cc(C2CC2)ncc1-c1nc2c(n1C(C)C)[C@]1(C(=O)Nc3cc(Cl)ccc31)N(c1cc(F)cc(Cl)c1)C2=O", "note": "[Example R-176, (R)-6-chloro-5′-(3-chloro-5-fluorophenyl)-2′-(6-cyclopropyl-4-methoxypyridin-3-yl)-3′-isopropyl-3′H-spiro[dihydroindole-3,4′-pyrrolo[3,4-d]imidazole]-2,6′(5′H)-dione]", "values": [
      {"measurement": "IC50", "result": 321, "unit": "nM"}
    ]},
    {"compound": "COc1ncc(-c2nc3c(n2C(C)C)[C@@]2(C(=O)Nc4cc(Cl)ccc42)N(c2ccc(OC)c(Cl)c2)C3=O)c(OC)n1", "note": "[Example S-48, (S)-6-chloro-5′-(3-chloro-4-methoxyphenyl)-2′-(2,4-dimethoxypyrimidin-5-yl)-3′-isopropyl-3′H-spiro[dihydroindole-3,4′-pyrrolo[3,4-d]imidazole]-2,6′(5′H)-dione]", "values": [
      {"measurement": "IC50", "result": 1.46, "unit": "nM"}
    ]},
    {"compound": "COc1ncc(-c2nc3c(n2C(C)C)[C@@]2(C(=O)Nc4cc(Cl)ccc42)N(c2cc(C)ccc2C)C3=O)c(OC)n1", "note": "[Example S-56, (S)-6-chloro-2′-(2,4-dimethoxypyrimidin-5-yl)-5′-(2,5-dimethylphenyl)-3′-isopropyl-3′H-spiro[dihydroindole-3,4′-pyrrolo[3,4-d]imidazole]-2,6′(5′H)-dione]", "values": [
      {"measurement": "IC50", "result": 5.19, "unit": "nM"}
    ]},
    {"compound": "COc1ncc(-c2nc3c(n2C(C)C)[C@@]2(C(=O)Nc4cc(Cl)ccc42)N(c2ccc(C(N)=O)c(Cl)c2)C3=O)c(OC)n1", "note": "[Example S-60, (S)-2-chloro-4-(6-chloro-2′-(2,4-dimethoxypyrimidin-5-yl)-3′-isopropyl-2,6′-dioxo-3′,6′-dihydro-5′H-spiro[dihydroindole-3,4′-pyrrolo[3,4-d]imidazole]-5′-yl)benzamide]", "values": [
      {"measurement": "IC50", "result": 4.81, "unit": "nM"}
    ]},
    {"compound": "COc1cc(OC)c(-c2nc3c(n2C(C)C)[C@@]2(C(=O)Nc4cc(Cl)ccc42)N(c2ccc(C(N)=O)c(Cl)c2)C3=O)cn1", "note": "[Example S-65, (S)-2-chloro-4-(6-chloro-2′-(4,6-dimethoxypyridin-3-yl)-3′-isopropyl-2,6′-dioxo-3′,6′-dihydro-5′H-spiro[dihydroindole-3,4′-pyrrolo[3,4-d]imidazole]-5′-yl)benzamide]", "values": [
      {"measurement": "IC50", "result": 4.04, "unit": "nM"}
    ]},
    {"compound": "COc1cc(C(C)C)ccc1-c1nc2c(n1C(C)C)[C@@]1(C(=O)Nc3cc(Cl)ccc31)N(c1cccc(Cl)c1)C2=O", "note": "[Example S-93, (S)-6-chloro-5′-(3-chlorophenyl)-3′-isopropyl-2′-(4-isopropyl-2-methoxyphenyl)-3′H-spiro[dihydroindole-3,4′-pyrrolo[3,4-d]imidazole]-2,6′(5′H)-dione]", "values": [
      {"measurement": "IC50", "result": 3.89, "unit": "nM"}
    ]}
  ]
}
